From patent publication US11512042B2, “Enamine compounds for absorbance of electromagnetic energy” (Commonwealth Scientific and Industrial Research Organisation, priority 2015, dated 2022)
Where “and” joins values, the source holds several entries; their conditions need not be identical. Identical values can stand only once.

Legend:
Assay type in all cases: physicochemical
[1] = Photostability protocol: thin film irradiated with xenon arc lamp; conditions: 1 hour xenon arc lamp, ratio of absorbance at λmax irradiated vs unirradiated, ^a = average of multiple measurements
Procedure: 1 mL of a 3% solution of the test compound (30 mg of test compound in 1 mL solvent) was prepared in a solvent mix made up of 50% EtOH and 25% capric/caprylic triglyceride and 25% C12-C15 alkyl benzoate. 50 μL of this solution (containing 1.5 mg of test compound) was added carefully to the centre of a glass microscope slide and the volatile components left to evaporate in the dark for at least 3 hours to give a liquid film. The prepared films were then exposed for 1 hour to an Eimac 150 W xenon arc lamp filtered through Pyrex (15 Amp supply current, samples 19 cm from the lamp) previously allowed to warm up for 15 minutes prior to sample exposure. The irradiation was performed in a fume cupboard where the air flow was sufficient to keep sample T<30° C. One hour's exposure represented a calculated radiation dose (using meter) of approximately 100 MED.
In order to calculate the photostability of the test compounds, the exposed slides were placed in a beaker and rinsed with 2×5 mL EtOH, 1×5 mL MeOH. The combined washings were then added to a 100 mL volumetric flask and made up to 100 mL total volume with methanol. The UV absorbance was then measured in a 10 mm cuvette. The percent stability is measured as the ratio of absorbance at λmax for the irradiated sample compared to the unirradiated sample.
The thin films are a good surrogate for testing the stability of a candidate in, for example, a sunscreen formulation as they use cosmetic emollients as solvent and are formed at cosmetically relevant concentrations.

[2] = UV absorbance spectrum in solution (λmax, λcrit, extinction coefficients); conditions: for λcrit: critical wavelength; for E (1%, 1 cm): mass extinction coefficient; for ε: molar extinction coefficient, in M-1 cm-1 (unit assumed)
Procedure, shortened: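 Spectra taken on 0.001% solutions in methanol, 10 mm path. Breakthrough is the wavelength where transmittance rises above 1%; steepness is the nm span over which transmittance goes from 1 to 80%.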

[3] = % transmission spectrum of 0.1% solution (breakthrough, steepness); conditions: for Steepness: distance in nm over which transmittance increases from 1 to 80%; for Breakthrough (1% T at 0.1%): value in nm where transmittance increases beyond 1%, 0.1% solution
Source text: FIG. 2 is a is a graphical representation of the % transmission of compounds 142 and 143 measured in a 2 mm cuvette as 0.1% solutions in methanol (142 is the left most trace);
The synthesised benzoyl functionalised compounds and their spectroscopic properties can be seen in table 2 wherein; breakthrough denotes the value in nm where transmittance increases beyond 1%; steepness refers to the distance in nm over which transmittance increases from 1 to 80% (a higher value indicates a less steep transition from absorbing to transmitting and is generally unfavourable); and ^a denotes an average of multiple measurements. As a general comment, it can be noted that the benzoyl substituted compounds gave similar absorbance maxima to the corresponding trifluoroacetyl derivative.

| Photostability [1] | λmax [2] | λcrit [2] | E (1%, 1 cm) [2] | ε [2] | Steepness [3] | Breakthrough (1% T at 0.1%) [3] | Compound |
| --- | --- | --- | --- | --- | --- | --- | --- |
| 63% | 359 nm | 384 nm | 1045 | 33443 | 23 nm | 409 nm | CN(C)C(=O)C(=O)/C(=C\N1CCc2ccccc21)c1ccccc1 [Compound 258] |
| 76% | 366 nm | 389 nm | 940 | 32824 | 32 nm | 417 nm | CC(C)(C)OC(=O)C(=O)/C(=C/N1CCc2ccccc21)c1ccccc1 [Compound 267] |
| 94% and 94^a % and 98% and 91% | 374 nm | 391 nm | 1033 | 42074 | 26 nm | 419 nm | COC(=O)c1ccc2c(c1)CCN2/C=C(/C(=O)C(=O)OC(C)(C)C)c1ccccc1 [Compound 269] |
| 80% | 362 nm | 386 nm | 887 | 30075 | 35 nm | 421 nm | Cc1ccc(C(=O)/C(=C/N2CCc3ccccc32)c2ccccc2)cc1 [Compound 272] |
| 88% | 372 nm | 391 nm | 953 | 44118 | 30 nm | 418 nm | CCCCC(CC)COC(=O)C(=O)/C(=C/N1CCc2cc(C(=O)OC)ccc21)c1ccccc1 (centres unmarked) [Compound 278] |
| 32% | 368 nm | 386 nm | 1304 | 58842 | 32 nm | 412 nm | COC(=O)c1ccc2c(c1)CCN2/C=C(/C(=O)C(=O)OC(C)(C)C(=O)OC)c1ccccc1 [Compound 279] |
| 68% | 357 nm | 370 nm | 1440 | 67567 | 21 nm | 384 nm | COC(=O)c1ccc2c(c1)CCN2/C=C(/C(=O)C(=O)OC(C)(C)c1ccccc1)c1ccccc1 [Compound 280] |
| 89% and 91% | 368 nm | 382 nm | 1427 | 60650 | 23 nm | 402 nm | COC(=O)c1ccc2c(c1)CCN2C=C(C(=O)c1c(C)cc(C)cc1C)c1ccccc1 [Compound 282] |
| 87% and 88% | 367 nm | 384 nm | 1339 | 48637 | 16 nm | 401 nm | COC(=O)c1ccc2c(c1)CCN2/C=C(/C(=O)C(C)(C)C)c1ccccc1 [Compound 283] |
| 76% | 373 nm | 389 nm | 1007 | 44238 | 35 nm | 425 nm | COC(=O)c1ccc2c(c1)CCN2/C=C(/C(=O)c1ccc(C(C)(C)C)cc1)c1ccccc1 [Compound 287] |
| 78% | 357 nm | 370 nm | 1405 | 59157 | 18 nm | 381 nm | CCC(CC)(CC)OC(=O)/C(=C/N1CCc2cc(C(=O)OC)ccc21)c1ccccc1 [Compound 289] |
| 53% | 370 nm | 389 nm | 1260 | 51191 | 22 nm | 412 nm | CCN(CC)C(=O)C(=O)/C(=C/N1CCc2cc(C(=O)OC)ccc21)c1ccccc1 [Compound 290] |

Continued, compound first:

| Compound | Photostability [1] | λmax [2] | λcrit [2] | E (1%, 1 cm) [2] | ε [2] | Steepness [3] | Breakthrough (1% T at 0.1%) [3] |
| --- | --- | --- | --- | --- | --- | --- | --- |
| CN(C)C(=O)C(=O)/C(=C/N(c1ccccc1)c1ccccc1)c1ccccc1 [Compound 257] | 85% | 346 nm | 378 nm | 382 | 14163 | 32 nm | 394 nm |
| CCN(/C=C(\C(=O)C(=O)N(C)C)c1ccccc1)c1ccccc1 [Compound 259] | 66% | 326 nm | 365 nm | 724 | 23336 | 34 nm | 378 nm |
| CCOC(=O)C(=O)/C(=C/N(CC)CC)c1ccccc1 [Compound 260] | 40% | 313 nm | 352 nm | 726 | 19983 | 38 nm | 363 nm |
| CCN(/C=C(/C(=O)C(=O)N(C)C)c1ccccc1)CC [Compound 261] | 63% | 310 nm | 342 nm | 844 | 23144 | 28 nm | 355 nm |
| CCN(/C=C(/C(=O)c1ccc(S(=O)(=O)N(C)C)cc1)c1ccccc1)c1ccccc1 [Compound 264] | 20% | 340 nm | 381 nm | 433 | 18791 | 46 nm | 403 nm |
| CCN(/C=C(/C(=O)c1ccccc1)c1ccccc1)CC [Compound 268] | 10% | 312 nm | 360 nm | 656 | 18293 | 48 nm | 374 nm |
| CC(C)(C)OC(=O)C(=O)/C(=C/N(c1ccccc1)c1ccccc1)c1ccccc1 [Compound 270] | 89% | 349 nm | 381 nm | 551 | 22023 | 35 nm | 400 nm |
| CCN(/C=C(/C(=O)C(=O)OC(C)(C)C)c1ccccc1)c1ccccc1 [Compound 271] | 75% | 332 nm | 366 nm | 530 | 18592 | 36 nm | 381 nm |
| CCN(/C=C(/C(=O)c1ccc(C)cc1)c1ccccc1)c1ccccc1 [Compound 273] | 73% | 336 nm | 376 nm | 614 | 20922 | 37 nm | 394 nm |
| Cc1ccc(C(=O)/C(=C/N(c2ccccc2)c2ccccc2)c2ccccc2)cc1 [Compound 274] | 76% | 353 nm | 384 nm | 420 | 16369 | 42 nm | 411 nm |
| COc1ccccc1C(=O)/C(=C/N1CCc2ccccc21)c1ccccc1 [Compound 275] | 56% | 358 nm | 383 nm | 1074 | 38139 | 30 nm | 406 nm |
| CCN(/C=C(/C(=O)c1ccccc1OC)c1ccccc1)c1ccccc1 [Compound 276] | 56% | 327 nm | 366 nm | 711 | 25385 | 40 nm | 379 nm |
| O=C(C(=O)N1CCc2ccccc21)/C(=C/N1CCc2ccccc21)c1ccccc1 [Compound 277] | 95% | 365 nm | 388 nm | 872 | 34350 | 26 nm | 414 nm |
| COc1ccccc1C(=O)/C(=C/N(c1ccccc1)c1ccccc1)c1ccccc1 [Compound 285] | 76% | 345 nm | 378 nm | 666 | 27034 | 34 nm | 398 nm |
